Laboratory results from PubChem BioAssay (NCI).
Several values for one entry are separate records, joined by “and”; a condition that tells them apart may be missing. Identical values can stand only once.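 Where inhibition never reached the appropriate level, the endpoint shown equals the highest concentration tested. Otherwise, values were interpolated linearly from a five-concentration, 48-hour dose response in 96-well plates. At the GI50, growth is halved. Definition used: TGI = concentration required for complete inhibition of growth.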

Tests used:
Test in all cases: DTP human tumour cell line panel, 48 h
A549 NSCLC = tested on: A549 NSCLC
OVCAR-4 ovarian = tested on: OVCAR-4 ovarian
SF-268 CNS = tested on: SF-268 CNS
M14 melanoma = tested on: M14 melanoma
UACC-257 melanoma = tested on: UACC-257 melanoma
U251 CNS = tested on: U251 CNS
OVCAR-8 ovarian = tested on: OVCAR-8 ovarian
SF-539 CNS = tested on: SF-539 CNS
UO-31 renal = tested on: UO-31 renal
MOLT-4 leukemia = tested on: MOLT-4 leukemia
HOP-92 NSCLC = tested on: HOP-92 NSCLC
NCI-H522 lung = tested on: NCI-H522 lung
SNB-19 CNS = tested on: SNB-19 CNS
NCI-H226 lung = tested on: NCI-H226 lung

| Structure (SMILES) | TGI (A549 NSCLC) | TGI (OVCAR-4 ovarian) [µM] | TGI (SF-268 CNS) | TGI (M14 melanoma) | TGI (UACC-257 melanoma) | TGI (U251 CNS) [µM] | TGI (OVCAR-8 ovarian) [µM] | TGI (SF-539 CNS) [µM] | TGI (UO-31 renal) | TGI (MOLT-4 leukemia) [µM] | TGI (HOP-92 NSCLC) [µM] | TGI (NCI-H522 lung) [µM] | TGI (SNB-19 CNS) [µM] | TGI (NCI-H226 lung) | GI50 (SF-268 CNS) [µM] | GI50 (M14 melanoma) [µM] | GI50 (OVCAR-8 ovarian) [µM] | GI50 (NCI-H226 lung) [µM] | GI50 (MOLT-4 leukemia) [µM] | GI50 (HOP-92 NSCLC) [µM] |
| --- | --- | --- | --- | --- | --- | --- | --- | --- | --- | --- | --- | --- | --- | --- | --- | --- | --- | --- | --- | --- |
| NC(CCOCCP(=O)(O)CCOCCC(N)C(=O)O)C(=O)O (stereo not drawn) | > 100 µM | > 100 | > 100 µM | > 100 µM | > 100 µM | > 100 | > 100 | > 100 | > 100 µM | > 100 | > 100 | > 100 | > 100 | – | – | – | – | – | – | – |
| NC(Cc1ccccc1)(C(=O)O)C(=O)O | > 100 µM | > 100 | > 100 µM | > 100 µM | > 100 µM | > 100 | > 100 | > 100 | > 100 µM | > 100 | > 100 | > 100 | > 100 | > 100 µM | – | – | – | – | – | – |
| CC(C)C1OC(/C=C/c2ccccc2)OCC1(C)C (stereo not drawn) | > 100 µM | > 100 | > 100 µM | > 100 µM | 63.6 µM | 60.8 | > 100 | – | > 100 µM | – | 52.5 | 32.2 | > 100 | 63 µM | – | – | – | – | – | – |
| O=C1OCc2cccc3c2-c2c1cccc2C(=O)OC3 | – | > 100 | > 100 µM | > 100 µM | – | > 100 | > 100 | > 100 | > 100 µM | > 100 | 92.2 | – | > 100 | – | – | – | – | – | – | – |
| N=C(N)SCc1cccc2c(=O)cc(-c3ccccc3)oc12 | 29 µM | 31.2 | 45.8 µM | 27.5 µM | 26 µM | 27.3 | 29.8 | 20.9 | 11.3 µM | 8.79 | 16.9 | 13.6 | > 61.1 | 58 µM | – | – | – | – | – | – |
| C/C(=C\c1ccc(Cl)c(Cl)c1)[N+](=O)[O-] | 3.41 µM and 4.52 µM | 3.09 | 3.31 µM and 3.33 µM | 3.13 µM and 3.16 µM | 2.56 µM and 2.84 µM | 2.71 | 3.4 | 5.77 | 2.61 µM and 2.66 µM | > 100 | 2.99 | 3.14 | 9.45 | 42.6 µM and 5.26 µM | 1.66 | 1.57 | 1.62 | 17.5 | 2.58 | 1.43 |
| COc1cccc(CC2Cc3ccccc3CC(=O)N2)c1 (stereo not drawn) | > 100 µM | > 100 | > 100 µM | 93.3 µM | > 100 µM | > 100 | > 100 | > 100 | > 100 µM | > 100 | > 100 | – | > 100 | > 100 µM | – | – | – | – | – | – |
| O=C1/C(=C/c2ccc(Cl)cc2)N=C(c2ccccc2)N1c1ccc(S(=O)(=O)Nc2nccs2)cc1 | > 100 µM | > 100 | > 100 µM | > 100 µM | > 100 µM | > 100 | – | > 100 | > 100 µM | 83.2 | 90.7 | – | > 100 | > 100 µM | – | – | – | – | – | – |
